{
  "source": "ChEMBL document CHEMBL3045199",
  "about": "“Synthesis of some (E)-6-[2-(furan-2-yl)ethenyl]-1,2,4-triazin-5-ones and their biological evaluation as antitumor agents” (2013)",
  "assay_type_in_all_cases": "functional",
  "key": {"K562": {"system": "K562", "experiment": "Cytotoxicity against Homo sapiens (human) K562 cells after 48 hr by SRB assay", "conditions": "K562, 48 h"}, "UACC-257": {"system": "UACC-257", "experiment": "Cytotoxicity against Homo sapiens (human) UACC257 cells after 48 hr by SRB assay", "conditions": "UACC-257, 48 h"}, "A549": {"system": "A549", "experiment": "Cytotoxicity against Homo sapiens (human) A549 cells after 48 hr by SRB assay", "conditions": "A549, 48 h"}, "OVCAR-3": {"system": "OVCAR-3", "experiment": "Cytotoxicity against Homo sapiens (human) OVCAR3 cells after 48 hr by SRB assay", "conditions": "OVCAR-3, 48 h"}, "SK-OV-3": {"system": "SK-OV-3", "experiment": "Cytotoxicity against Homo sapiens (human) SKOV3 cells after 48 hr by SRB assay", "conditions": "SK-OV-3, 48 h"}, "NCI-H23": {"system": "NCI-H23", "experiment": "Cytotoxicity against Homo sapiens (human) NCI-H23 cells after 48 hr by SRB assay", "conditions": "NCI-H23, 48 h"}, "SF-539": {"system": "SF-539", "experiment": "Cytotoxicity against Homo sapiens (human) SF539 cells after 48 hr by SRB assay", "conditions": "SF-539, 48 h"}, "PC-3": {"system": "PC-3", "experiment": "Cytotoxicity against Homo sapiens (human) PC3 cells after 48 hr by SRB assay", "conditions": "PC-3, 48 h"}, "NCI-H226": {"system": "NCI-H226", "experiment": "Cytotoxicity against Homo sapiens (human) NCI-H226 cells after 48 hr by SRB assay", "conditions": "NCI-H226, 48 h"}, "A498": {"system": "A498", "experiment": "Cytotoxicity against Homo sapiens (human) A498 cells after 48 hr by SRB assay", "conditions": "A498, 48 h"}, "HL-60(TB)": {"system": "HL-60(TB)", "experiment": "Cytotoxicity against Homo sapiens (human) HL-60(TB) cells after 48 hr by SRB assay", "conditions": "HL-60, 48 h"}, "RXF 393": {"system": "RXF 393", "experiment": "Cytotoxicity against Homo sapiens (human) RXF393 cells after 48 hr by SRB assay", "conditions": "RXF 393, 48 h"}, "HCT-15": {"system": "HCT-15", "experiment": "Cytotoxicity against Homo sapiens (human) HCT15 cells after 48 hr by SRB assay", "conditions": "HCT-15, 48 h"}, "M14": {"system": "M14", "experiment": "Cytotoxicity against Homo sapiens (human) M14 cells after 48 hr by SRB assay", "conditions": "M14, 48 h"}, "SK-MEL-2": {"system": "SK-MEL-2", "experiment": "Cytotoxicity against Homo sapiens (human) SK-MEL-2 cells after 48 hr by SRB assay", "conditions": "SK-MEL-2, 48 h"}, "TK-10": {"system": "TK-10", "experiment": "Cytotoxicity against Homo sapiens (human) TK10 cells after 48 hr by SRB assay", "conditions": "TK-10, 48 h"}, "OVCAR-4": {"system": "OVCAR-4", "experiment": "Cytotoxicity against Homo sapiens (human) OVCAR4 cells after 48 hr by SRB assay", "conditions": "OVCAR-4, 48 h"}, "[1]": {"conditions": "read-out: LC50 (the source's name)"}},
  "data": [
    {"smiles": "Nc1cc(-c2ccc(Cl)cc2)nn1-c1nc(=O)c(/C=C/c2ccco2)n[nH]1", "values": [
      {"measurement": "LC50", "setting": "K562", "result": "> 100", "unit": "µM"},
      {"measurement": "TGI", "setting": "K562", "result": 23, "unit": "µM"},
      {"measurement": "GI50", "setting": "K562; read-out: GI50", "result": 2.79, "unit": "µM"},
      {"measurement": "GI50", "setting": "K562; read-out: pGI50 (converted)", "result": 2.75, "unit": "µM"},
      {"measurement": "LC50", "setting": "UACC-257", "result": "> 100", "unit": "µM"},
      {"measurement": "TGI", "setting": "UACC-257", "result": 71.8, "unit": "µM"},
      {"measurement": "GI50", "setting": "UACC-257; read-out: GI50", "result": 6.59, "unit": "µM"},
      {"measurement": "GI50", "setting": "UACC-257; read-out: pGI50 (converted)", "result": 6.61, "unit": "µM"},
      {"measurement": "LC50", "setting": "A549", "result": "> 100", "unit": "µM"},
      {"measurement": "TGI", "setting": "A549", "result": 34.2, "unit": "µM"},
      {"measurement": "GI50", "setting": "A549; read-out: GI50", "result": 3.48, "unit": "µM"},
      {"measurement": "GI50", "setting": "A549; read-out: pGI50 (converted)", "result": 3.47, "unit": "µM"},
      {"measurement": "LC50 (50% lethal concentration)", "setting": "OVCAR-3", "result": 31.8, "unit": "µM"},
      {"measurement": "TGI", "setting": "OVCAR-3", "result": 5.2, "unit": "µM"},
      {"measurement": "GI50", "setting": "OVCAR-3; read-out: GI50", "result": 1.48, "unit": "µM"},
      {"measurement": "GI50", "setting": "OVCAR-3; read-out: pGI50 (converted)", "result": 1.48, "unit": "µM"},
      {"measurement": "LC50", "setting": "SK-OV-3", "result": "> 100", "unit": "µM"},
      {"measurement": "TGI", "setting": "SK-OV-3", "result": 7.43, "unit": "µM"},
      {"measurement": "GI50", "setting": "SK-OV-3; read-out: GI50", "result": 5.58, "unit": "µM"},
      {"measurement": "GI50", "setting": "SK-OV-3; read-out: pGI50 (converted)", "result": 5.62, "unit": "µM"},
      {"measurement": "TGI", "setting": "NCI-H23", "result": 53.9, "unit": "µM"},
      {"measurement": "GI50", "setting": "NCI-H23; read-out: GI50", "result": 5.13, "unit": "µM"},
      {"measurement": "CC50", "setting": "NCI-H23; [1]", "result": "> 100", "unit": "µM"},
      {"measurement": "GI50", "setting": "NCI-H23; read-out: pGI50 (converted)", "result": 5.13, "unit": "µM"},
      {"measurement": "TGI", "setting": "SF-539", "result": 26.1, "unit": "µM"},
      {"measurement": "GI50", "setting": "SF-539; read-out: GI50", "result": 5.49, "unit": "µM"},
      {"measurement": "CC50", "setting": "SF-539; [1]", "result": "> 100", "unit": "µM"},
      {"measurement": "GI50", "setting": "SF-539; read-out: pGI50 (converted)", "result": 5.5, "unit": "µM"},
      {"measurement": "LC50 (50% lethal concentration)", "setting": "PC-3", "result": "> 100", "unit": "µM"},
      {"measurement": "TGI", "setting": "PC-3", "result": 56.2, "unit": "µM"},
      {"measurement": "GI50", "setting": "PC-3; read-out: GI50", "result": 5.6, "unit": "µM"},
      {"measurement": "GI50", "setting": "PC-3; read-out: pGI50 (converted)", "result": 5.62, "unit": "µM"},
      {"measurement": "LC50 (lethal concentration, 50% cell kill)", "setting": "NCI-H226", "result": "> 100", "unit": "µM"},
      {"measurement": "TGI", "setting": "NCI-H226", "result": 75.6, "unit": "µM"},
      {"measurement": "GI50", "setting": "NCI-H226; read-out: GI50", "result": 12.2, "unit": "µM"},
      {"measurement": "GI50", "setting": "NCI-H226; read-out: pGI50 (converted)", "result": 12.3, "unit": "µM"},
      {"measurement": "LC50", "setting": "A498", "result": "> 100", "unit": "µM"},
      {"measurement": "TGI", "setting": "A498", "result": 6.62, "unit": "µM"},
      {"measurement": "GI50", "setting": "A498; read-out: GI50", "result": 1.62, "unit": "µM"},
      {"measurement": "GI50", "setting": "A498; read-out: pGI50 (converted)", "result": 1.62, "unit": "µM"},
      {"measurement": "LC50", "setting": "HL-60(TB)", "result": "> 100", "unit": "µM"},
      {"measurement": "TGI", "setting": "HL-60(TB)", "result": 8.19, "unit": "µM"},
      {"measurement": "GI50", "setting": "HL-60(TB); read-out: GI50", "result": 2.83, "unit": "µM"},
      {"measurement": "GI50", "setting": "HL-60(TB); read-out: pGI50 (converted)", "result": 2.82, "unit": "µM"},
      {"measurement": "LC50", "setting": "RXF 393", "result": "> 100", "unit": "µM"},
      {"measurement": "TGI", "setting": "RXF 393", "result": 54.9, "unit": "µM"},
      {"measurement": "GI50", "setting": "RXF 393; read-out: GI50", "result": 13.1, "unit": "µM"},
      {"measurement": "GI50", "setting": "RXF 393; read-out: pGI50 (converted)", "result": 13.2, "unit": "µM"},
      {"measurement": "TGI", "setting": "HCT-15", "result": "> 100", "unit": "µM"},
      {"measurement": "GI50", "setting": "HCT-15; read-out: GI50", "result": 1.89, "unit": "µM"},
      {"measurement": "CC50", "setting": "HCT-15; [1]", "result": "> 100", "unit": "µM"},
      {"measurement": "GI50", "setting": "HCT-15; read-out: pGI50 (converted)", "result": 1.91, "unit": "µM"},
      {"measurement": "LC50", "setting": "M14", "result": "> 100", "unit": "µM"},
      {"measurement": "TGI", "setting": "M14", "result": 31.7, "unit": "µM"},
      {"measurement": "GI50", "setting": "M14; read-out: GI50", "result": 2.27, "unit": "µM"},
      {"measurement": "GI50", "setting": "M14; read-out: pGI50 (converted)", "result": 2.29, "unit": "µM"},
      {"measurement": "TGI", "setting": "SK-MEL-2", "result": 77.9, "unit": "µM"},
      {"measurement": "GI50", "setting": "SK-MEL-2; read-out: GI50", "result": 15.6, "unit": "µM"},
      {"measurement": "CC50", "setting": "SK-MEL-2; [1]", "result": "> 100", "unit": "µM"},
      {"measurement": "GI50", "setting": "SK-MEL-2; read-out: pGI50 (converted)", "result": 15.5, "unit": "µM"},
      {"measurement": "LC50", "setting": "TK-10", "result": "> 100", "unit": "µM"},
      {"measurement": "TGI", "setting": "TK-10", "result": 23.1, "unit": "µM"},
      {"measurement": "GI50", "setting": "TK-10; read-out: GI50", "result": 3.64, "unit": "µM"},
      {"measurement": "GI50", "setting": "TK-10; read-out: pGI50 (converted)", "result": 3.63, "unit": "µM"},
      {"measurement": "LC50", "setting": "OVCAR-4", "result": "> 100", "unit": "µM"},
      {"measurement": "TGI", "setting": "OVCAR-4", "result": 28.8, "unit": "µM"},
      {"measurement": "GI50", "setting": "OVCAR-4; read-out: GI50", "result": 3.45, "unit": "µM"},
      {"measurement": "GI50", "setting": "OVCAR-4; read-out: pGI50 (converted)", "result": 3.47, "unit": "µM"}
    ]}
  ]
}
